The text below walks through data of paper PMC3281113, “Recognition of Anesthetic Barbiturates by a Protein Binding Site: A High Resolution Structural Analysis” (PLoS ONE, 2012).

Read-outs that look alike come from different tables or passages of the source.

The target in one data set is T1, horse spleen apoferritin (Equus caballus, UniProt P02791).
T1 construct: gene FTL; native spleen apoferritin from Sigma-Aldrich, 24-mer, heavy and light chains in approximate mole ratio 1:6; with Ferritin heavy chain
T1 sequence (P02791 2-175): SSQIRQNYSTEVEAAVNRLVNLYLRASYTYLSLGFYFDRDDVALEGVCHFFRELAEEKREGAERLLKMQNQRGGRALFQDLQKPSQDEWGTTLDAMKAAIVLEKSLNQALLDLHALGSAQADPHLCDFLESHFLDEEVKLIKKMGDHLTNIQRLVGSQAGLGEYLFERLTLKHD
Description: isothermal titration calorimetry. It is filed as binding. In general terms: ITC needs no label: the signal is the heat of the interaction.

Data set [1] deals with the molecule itself. Description: crystal structure; apoferritin co-crystallized with thiopental or pentobarbital; reservoir 0.2-1.6 M (NH4)2SO4, 0.1-0.275 M CdSO4, 18°C; space group F432.

The molecule `CCCC(C)C1(CC)C(=O)NC(=O)NC1=O` (racemic) [Pentobarbital] came in with a Kd at horse spleen apoferritin of 64.3 ± 5.5 µM. `CCCC(C)C1(CC)C(=O)NC(=S)NC1=O` (racemic) [Thiopental]: the Kd at horse spleen apoferritin (read-out: Thiopental) came to 11 ± 0.9 µM.

With `CCC[C@@H](C)C1(CC)C(=O)NC(=S)NC1=O` [R-form of thiopental], at horse spleen apoferritin (read-out: K d), the Kd was determined as 29.3 ± 3.1 µM. As for `CCC[C@H](C)[C@@]1(CC)C(=O)N=C(S)NC1=O` [S-enantiomer of thiopental], the Kd at horse spleen apoferritin (read-out: K d) was 18.7 ± 0.9 µM.

B1: horse spleen apoferritin (natural protein, UniProt P02791 1-175, looked up)
chain: MSSQIRQNYSTEVEAAVNRLVNLYLRASYTYLSLGFYFDRDDVALEGVCHFFRELAEEKREGAERLLKMQNQRGGRALFQDLQKPSQDEWGTTLDAMKAAIVLEKSLNQALLDLHALGSAQADPHLCDFLESHFLDEEVKLIKKMGDHLTNIQRLVGSQAGLGEYLFERLTLKHD
notes: ferritin light chain of horse spleen apoferritin; only the light chain is modelled in the structures; The commercial apoferritin is a mixture of heavy and light chains in an approximate mole ratio of 1:6; Only the light chain is seen in the electron density, so the 24-mer is written here as light chains only; also called L-chain; L-protomers; source: bought: Sigma-Aldrich; purified by gel …
As for B1, the “stoichiometry N” value in data set [1] is 24.

As a reminder, the stoichiometry N is the number of molecules, sites or subunits per partner or assembly.
